Assays:
BRD4-1 = biological target: T1, BRD4-1 (Homo sapiens, UniProt O60885); test: BRD4-1 in vitro inhibition; type: binding
T1 construct: BRD4-1
Procedure: (§1) The kinase or bromodomain inhibitory activity of a compound of the invention can be determined by routine methods known to the skilled artisan without undue experimentation, or by procuring relevant analysis by a commercial vendor offering such services. […] In vivo, PI3K inhibition can be determined from target tissue biopsies by standard tissue processing in which cells are disrupted and Western Blot analysis is performed to determine the presence or absence of pAKT (substrate of PI3K) relative to a control sample. PI3K inhibition assays and BTK inhibition assays are known in the art and can be procured commercially through vendors such as Reaction Biology (Malvern, PA). The activity of a compound of the invention as an inhibitor of a bromodomain-containing protein, such as a BET protein, including BRD2, BRD3, BRD4, and/or BRDT, or an isoform or mutant thereof, may be determined in vitro, in vivo, or in a cell line. In vitro assays include assays that determine inhibition of bromodomain-containing proteins. Alternatively, inhibitor binding may be determined by running a competition experiment where a provided compound is incubated with a bromodomain-containing protein, such as a BET protein bound to known ligands, labeled or unlabeled. In vitro bromodomain inhibition assays can be performed using Alpha Screen Technology (Perkin Elmer Life and Analytical Sciences, Shelton, CT). In vivo bromodomain inhibition can be determined indirectly by evaluating the amount of a protein whose gene transcription is influenced or controlled by the bromodomain protein, for example, MYCN protein transcription is controlled by BRD4 (J.E. Delmore et al., Cell 2011, 146, 904-917; A. Puissant, Cancer Discov. 2013, 3, 308-323).

BRD4-2 = biological target: T2, BRD4-2 (Homo sapiens, UniProt O60885); test: BRD4-2 in vitro inhibition; type: binding
T2 construct: BRD4-2
Procedure: as §1

PI3K alpha = PI3K alpha (Homo sapiens, UniProt P42336); test: PI3K alpha in vitro inhibition; type: biochemical
Procedure: as §1

PI3K gamma = PI3K gamma (Homo sapiens, UniProt P48736); test: PI3K gamma in vitro inhibition; type: biochemical; details: read-out: IC50 inhibition PI3K gamma
Procedure: as §1
(§2) IC50 inhibition data against the indicated targets were determined for compounds of the invention using standard in vitro assays (Tables 8 and 9).

PI3K delta = PI3K delta (Homo sapiens, UniProt O00329); test: PI3K delta in vitro inhibition; type: biochemical
PI3K delta, sequence (O00329 whole entry): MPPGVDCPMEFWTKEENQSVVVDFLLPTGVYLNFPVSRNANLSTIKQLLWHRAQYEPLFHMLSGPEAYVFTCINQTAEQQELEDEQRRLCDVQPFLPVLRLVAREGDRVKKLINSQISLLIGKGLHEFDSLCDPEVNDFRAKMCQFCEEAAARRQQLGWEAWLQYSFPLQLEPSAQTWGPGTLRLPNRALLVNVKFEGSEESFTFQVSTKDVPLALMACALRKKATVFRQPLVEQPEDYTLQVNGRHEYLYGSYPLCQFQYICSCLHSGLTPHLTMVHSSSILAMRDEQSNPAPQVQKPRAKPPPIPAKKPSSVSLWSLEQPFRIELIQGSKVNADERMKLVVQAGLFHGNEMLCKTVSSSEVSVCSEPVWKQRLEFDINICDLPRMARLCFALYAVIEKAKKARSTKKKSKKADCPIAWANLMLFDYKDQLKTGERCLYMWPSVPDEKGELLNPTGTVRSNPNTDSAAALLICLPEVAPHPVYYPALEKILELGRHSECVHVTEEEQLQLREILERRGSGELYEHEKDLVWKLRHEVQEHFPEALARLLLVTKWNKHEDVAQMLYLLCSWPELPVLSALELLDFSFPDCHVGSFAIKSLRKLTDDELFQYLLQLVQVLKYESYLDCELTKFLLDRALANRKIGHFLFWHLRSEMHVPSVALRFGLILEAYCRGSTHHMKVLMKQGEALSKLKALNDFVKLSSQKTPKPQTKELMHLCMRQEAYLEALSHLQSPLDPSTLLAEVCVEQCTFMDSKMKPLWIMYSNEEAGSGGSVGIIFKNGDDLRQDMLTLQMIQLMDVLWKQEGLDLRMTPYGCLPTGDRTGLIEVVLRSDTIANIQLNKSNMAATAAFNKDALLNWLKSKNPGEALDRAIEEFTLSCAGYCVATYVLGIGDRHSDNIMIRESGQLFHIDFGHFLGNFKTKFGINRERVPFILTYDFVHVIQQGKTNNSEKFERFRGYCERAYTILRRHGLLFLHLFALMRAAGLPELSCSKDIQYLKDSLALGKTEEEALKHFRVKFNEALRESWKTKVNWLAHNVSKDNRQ
PI3K delta, sequence (P27986 whole entry partner): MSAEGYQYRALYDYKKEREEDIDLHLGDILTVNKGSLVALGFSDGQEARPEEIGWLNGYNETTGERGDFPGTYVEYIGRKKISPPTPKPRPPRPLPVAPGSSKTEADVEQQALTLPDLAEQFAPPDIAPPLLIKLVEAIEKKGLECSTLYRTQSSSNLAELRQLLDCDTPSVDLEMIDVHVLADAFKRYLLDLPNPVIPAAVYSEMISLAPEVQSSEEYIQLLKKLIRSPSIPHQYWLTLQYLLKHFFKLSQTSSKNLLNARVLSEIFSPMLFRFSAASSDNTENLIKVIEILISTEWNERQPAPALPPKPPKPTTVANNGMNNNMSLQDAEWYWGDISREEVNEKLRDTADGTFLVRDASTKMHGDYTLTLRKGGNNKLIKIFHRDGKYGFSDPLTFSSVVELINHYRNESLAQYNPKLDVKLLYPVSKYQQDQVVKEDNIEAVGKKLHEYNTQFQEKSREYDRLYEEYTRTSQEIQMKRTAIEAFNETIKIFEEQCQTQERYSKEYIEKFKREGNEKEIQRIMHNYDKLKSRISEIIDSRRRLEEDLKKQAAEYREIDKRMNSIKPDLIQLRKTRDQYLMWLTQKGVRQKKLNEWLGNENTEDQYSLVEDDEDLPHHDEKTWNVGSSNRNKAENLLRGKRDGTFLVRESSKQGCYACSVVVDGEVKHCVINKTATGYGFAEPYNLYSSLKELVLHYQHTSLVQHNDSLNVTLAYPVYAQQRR
Procedure: as §1, §2

CDK4 cyclinD1 = CDK4 cyclinD1 (Homo sapiens, UniProt P11802); test: CDK4 cyclinD1 in vitro inhibition; type: biochemical
CDK4 cyclinD1, sequence (P11802 whole entry): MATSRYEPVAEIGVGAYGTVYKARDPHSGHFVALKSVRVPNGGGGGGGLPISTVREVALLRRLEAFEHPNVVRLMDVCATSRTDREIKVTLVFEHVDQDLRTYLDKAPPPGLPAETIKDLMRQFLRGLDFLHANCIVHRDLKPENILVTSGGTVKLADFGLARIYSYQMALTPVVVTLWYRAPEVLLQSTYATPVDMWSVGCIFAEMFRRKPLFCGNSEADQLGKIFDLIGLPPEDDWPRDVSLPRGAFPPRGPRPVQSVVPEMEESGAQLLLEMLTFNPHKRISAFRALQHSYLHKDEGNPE
CDK4 cyclinD1, sequence (P24385 whole entry partner): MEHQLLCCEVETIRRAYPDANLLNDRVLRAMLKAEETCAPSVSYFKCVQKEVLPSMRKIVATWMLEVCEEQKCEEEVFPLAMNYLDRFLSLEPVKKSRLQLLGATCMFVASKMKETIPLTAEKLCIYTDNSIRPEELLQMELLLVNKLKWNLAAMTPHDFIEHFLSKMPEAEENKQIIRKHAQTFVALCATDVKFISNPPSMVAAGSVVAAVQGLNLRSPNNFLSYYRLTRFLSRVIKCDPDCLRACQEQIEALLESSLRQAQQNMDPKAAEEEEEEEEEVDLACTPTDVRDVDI
Procedure: as §1, §2

CDK6 cyclinD1 = CDK6 cyclinD1 (Homo sapiens, UniProt Q00534); test: CDK6 cyclinD1 in vitro inhibition; type: biochemical
CDK6 cyclinD1, sequence (Q00534 whole entry): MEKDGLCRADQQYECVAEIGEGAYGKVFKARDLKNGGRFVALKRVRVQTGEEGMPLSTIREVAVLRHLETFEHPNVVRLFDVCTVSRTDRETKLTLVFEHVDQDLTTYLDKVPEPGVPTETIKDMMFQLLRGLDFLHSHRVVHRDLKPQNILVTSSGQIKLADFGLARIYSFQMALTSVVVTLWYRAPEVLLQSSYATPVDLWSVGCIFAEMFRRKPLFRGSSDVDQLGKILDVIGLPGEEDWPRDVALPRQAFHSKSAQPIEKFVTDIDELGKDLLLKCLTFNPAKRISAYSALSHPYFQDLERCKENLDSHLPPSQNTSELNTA
CDK6 cyclinD1, sequence (P24385 whole entry partner): as the sequence (P24385 whole entry partner) above
Procedure: as §1, §2

Syk = Syk (Homo sapiens, UniProt P43405); test: Syk in vitro inhibition; type: biochemical
Procedure: as §1, §2

PI3K beta = PI3K beta (Homo sapiens, UniProt P42338); test: PI3K beta in vitro inhibition; type: biochemical
PI3K beta, sequence (P42338 whole entry): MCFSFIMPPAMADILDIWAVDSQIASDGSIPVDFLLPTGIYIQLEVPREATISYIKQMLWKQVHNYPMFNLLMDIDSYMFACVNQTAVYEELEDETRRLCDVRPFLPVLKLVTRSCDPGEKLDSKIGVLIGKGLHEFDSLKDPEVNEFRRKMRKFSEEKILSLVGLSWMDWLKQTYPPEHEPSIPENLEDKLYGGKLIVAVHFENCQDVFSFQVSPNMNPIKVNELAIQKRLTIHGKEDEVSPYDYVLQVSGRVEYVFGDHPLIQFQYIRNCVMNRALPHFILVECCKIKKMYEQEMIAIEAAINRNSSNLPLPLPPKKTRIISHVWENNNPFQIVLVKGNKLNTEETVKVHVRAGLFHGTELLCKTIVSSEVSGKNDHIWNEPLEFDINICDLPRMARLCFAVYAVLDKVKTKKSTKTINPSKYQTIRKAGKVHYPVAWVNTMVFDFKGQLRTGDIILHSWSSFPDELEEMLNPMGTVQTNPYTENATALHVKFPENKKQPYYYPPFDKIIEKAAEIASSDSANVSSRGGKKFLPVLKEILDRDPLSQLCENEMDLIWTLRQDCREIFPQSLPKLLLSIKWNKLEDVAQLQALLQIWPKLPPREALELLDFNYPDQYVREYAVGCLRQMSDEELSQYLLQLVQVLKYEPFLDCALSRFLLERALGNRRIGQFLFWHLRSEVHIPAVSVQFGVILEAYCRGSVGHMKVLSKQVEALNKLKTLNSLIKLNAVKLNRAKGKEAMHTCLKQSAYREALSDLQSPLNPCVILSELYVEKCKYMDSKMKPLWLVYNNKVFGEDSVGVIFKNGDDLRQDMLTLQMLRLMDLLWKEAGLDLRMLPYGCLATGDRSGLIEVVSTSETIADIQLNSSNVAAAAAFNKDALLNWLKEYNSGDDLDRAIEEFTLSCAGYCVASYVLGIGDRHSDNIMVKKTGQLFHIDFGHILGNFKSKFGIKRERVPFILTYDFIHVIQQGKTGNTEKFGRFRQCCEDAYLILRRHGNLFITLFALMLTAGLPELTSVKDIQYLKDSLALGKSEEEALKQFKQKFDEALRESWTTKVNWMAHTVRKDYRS
PI3K beta, sequence (P27986 whole entry partner): as the sequence (P27986 whole entry partner) above
Procedure: as §1

BTK = BTK (Homo sapiens, UniProt Q06187); test: BTK in vitro inhibition; type: biochemical
BTK, sequence (Q06187 whole entry): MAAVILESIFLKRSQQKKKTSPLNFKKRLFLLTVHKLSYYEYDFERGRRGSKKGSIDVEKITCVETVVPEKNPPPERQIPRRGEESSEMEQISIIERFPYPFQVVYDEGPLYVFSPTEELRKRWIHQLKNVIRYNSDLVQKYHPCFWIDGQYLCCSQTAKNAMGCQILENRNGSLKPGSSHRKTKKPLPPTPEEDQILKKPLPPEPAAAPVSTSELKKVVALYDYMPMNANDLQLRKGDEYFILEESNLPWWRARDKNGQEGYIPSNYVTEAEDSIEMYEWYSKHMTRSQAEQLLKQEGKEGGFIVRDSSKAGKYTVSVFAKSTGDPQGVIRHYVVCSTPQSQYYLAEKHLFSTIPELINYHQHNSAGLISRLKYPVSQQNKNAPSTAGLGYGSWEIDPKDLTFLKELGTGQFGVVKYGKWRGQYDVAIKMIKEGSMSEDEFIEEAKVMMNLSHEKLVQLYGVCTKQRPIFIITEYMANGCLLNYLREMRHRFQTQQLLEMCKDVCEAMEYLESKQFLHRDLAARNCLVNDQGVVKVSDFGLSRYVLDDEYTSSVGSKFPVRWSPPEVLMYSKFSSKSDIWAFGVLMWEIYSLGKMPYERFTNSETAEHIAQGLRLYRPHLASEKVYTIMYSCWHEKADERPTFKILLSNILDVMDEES
Procedure: as §1, §2

BTK C481S = BTK C481S (Homo sapiens, UniProt Q06187, C481S); test: BTK C481S in vitro inhibition; type: biochemical
BTK C481S, sequence (Q06187 whole entry C481S): as the sequence (Q06187 whole entry) above, with C481S counted along it
Procedure: as §1, §2

SMILES	IC50 (BRD4-1) [nM]	IC50 (BRD4-2) [nM]	IC50 (PI3K alpha) [nM]	IC50 (PI3K gamma) [nM]	IC50 (PI3K delta) [nM]	IC50 (CDK4 cyclinD1) [nM]	IC50 (CDK6 cyclinD1) [nM]	IC50 (Syk) [nM]	IC50 (PI3K beta) [nM]	IC50 (BTK) [nM]	IC50 (BTK C481S) [nM]
Cc1nn(-c2ccnc(Nc3ccc(-c4csc5c(=O)cc(N6CCN(C(=O)OC(C)(C)C)CC6)oc45)cc3)n2)cc1CN1CC(O)C1 [Compound 56]	1000 to 10000	> 45000	1000 to 10000	10000 to 45000	1000 to 10000	1000 to 10000	500 to 1000	< 500	–	–	–
C=CS(=O)(=O)Nc1cc(-c2csc3c(=O)cc(N4CCOCC4)oc23)ccc1OC [Compound 45]	< 500	< 500	< 500	< 500	–	–	–	–	< 500	< 500	> 45000
C=CS(=O)(=O)N1CCCc2ccc(-c3csc4c(=O)cc(N5CCOCC5)oc34)cc21 [Compound 44]	< 500	< 500	< 500	< 500	–	–	–	–	< 500	< 500	10000 to 45000
C=CC(=O)Nc1cc(-c2csc3c(=O)cc(N4CCOCC4)oc23)ccc1OC [Compound 36]	< 500	500 to 1000	< 500	1000 to 10000	–	–	–	–	< 500	1000 to 10000	1000 to 10000
Cc1nn(-c2ccnc(Nc3ccc(-c4csc5c(=O)cc(N6CCNCC6)oc45)cc3)n2)cc1CN1CCC1 [Compound 55]	1000 to 10000	> 45000	> 45000	> 45000	1000 to 10000	1000 to 10000	< 500	< 500	–	–	–
O=c1cc(N2CCOCC2)oc2c(C#Cc3ccccc3)csc12 [Compound 5-4]	1000 to 10000	10000 to 45000	< 500	< 500	< 500	–	–	–	–	–	–
CC(C)(C)OC(=O)Nc1cc2cnc(Nc3ccc(-c4csc5c(=O)cc(N6CCOCC6)oc45)cc3)nc2n1C1CCCC1 [Compound 25-3]	< 500	500 to 1000	< 500	1000 to 10000	< 500	< 500	< 500	–	–	–	–
CC(=O)c1c(C)c2cnc(Nc3ccc(-c4csc5c(=O)cc(N6CCOCC6)oc45)cc3)nc2n(C2CCCC2)c1=O [Compound 25-2]	< 500	< 500	< 500	1000 to 10000	< 500	< 500	< 500	–	–	–	–
COc1cc(C#Cc2csc3c(=O)cc(N4CCOCC4)oc23)cc(OC)c1 [Compound 5-3]	< 500	500 to 1000	500 to 1000	1000 to 10000	< 500	–	–	–	–	–	–
O=C(C1=CCCC1)N1CCOc2ccc(-c3csc4c(=O)cc(N5CCOCC5)oc34)cc21 [Compound 40]	< 500	< 500	< 500	1000 to 10000	–	–	–	–	< 500	> 45000	10000 to 45000
C=CS(=O)(=O)N(C)c1cccc(-c2csc3c(=O)cc(N4CCOCC4)oc23)c1 [Compound 47]	< 500	500 to 1000	< 500	< 500	–	–	–	–	< 500	< 500	> 45000
C=CS(=O)(=O)N(c1cccc(-c2csc3c(=O)cc(N4CCOCC4)oc23)c1)S(=O)(=O)C=C [Compound 50]	< 500	< 500	< 500	< 500	–	–	–	–	< 500	< 500	10000 to 45000
COc1cc(NC(C)=O)cc(-c2csc3c(=O)cc(N4CCOCC4)oc23)c1 [Compound 33]	< 500	1000 to 10000	< 500	< 500	–	–	–	–	< 500	500 to 1000	> 45000
C=CS(=O)(=O)N(c1cc(-c2csc3c(=O)cc(N4CCOCC4)oc23)ccc1OC)S(=O)(=O)C=C [Compound 49]	< 500	1000 to 10000	< 500	< 500	–	–	–	–	< 500	< 500	10000 to 45000

— patent US20230165873A1, “Methods of Use for Single Molecule Compounds Providing Multi-Target Inhibition to Treat Covid 19” (priority 2020, published 2023)
